For assay [1], the system named is tyrosinase. The experiment in a line: Western blotting of tyrosinase in G361 cells. Format: cell-based, human. As to the method: (§1) Cells were grown and treated in 6-well plates. After transfections or drug treatments as described above, the cells were lysed with RIPA lysis buffer. Cell lysate (30 μg) was resolved on SDS-PAGE followed by transfer onto a nitrocellulose membrane (Millipore) using a semidry transfer blotter. Immunoassays were done with anti-mortalin, anti-HSP70 and anti-tyrosinase antibodies. The immunocomplexes formed were visualized with horseradish peroxidase-conjugated anti-rabbit/mouse immunoglobulin G. The bands were detected by LAS 3000 mini (FujiFilm).

The subject of another assay is G361 cells. The experiment in a line: Melanin content in G361 cells. Type of assay: cell-based, human. The conditions noted are these: for OAG-induced melanin content: OAG-treated G361 cells, recovery with test substance. As to the method: Cells were treated with Di-acyl glycerol (OAG, 20 μg/ml) for 24 h followed by recovery either in the normal medium as described below or Vitamin C (0.1-0.3 mM) for 24 to 48 hrs.
(§2) G361 cells were cultured overnight and allowed to adhere to the surface well after which they were treated with TXC supplemented medium or OAG as described below followed by recovery in the TXC medium at doses indicated in the data figs.
Cells were plated in 96 well plates and allowed to attach well to the surface of the plate for 24 hours followed by transfections and treatments as described above and indicated in the figure legends. Cells were washed with PBS. Potassium hydroxide (KOH-0.85 N, 100 μl) was added to each. The plates were shaken gently in dark for overnight. Absorbance of the pigment was measured at 405 nm. Melanin content was calculated by using standard purified melanin (Sigma).

In assay [2] the test system is tyrosinase. The experiment in a line: Tyrosinase ELISA (tyrosinase activity assay) in G361 cells. Format: cell-based, human. As to the method:
Cells (Approximately 10000 cells/well) were plated in 96 well Nunc-Immuno maxisorp plates. At about 70% confluency, cells were transfected with shRNA plasmids (100 ng/well) as described above. After 24 hrs post-transfection, the cells were selected in puromycin-supplemented medium and were then processed for tyrosinase ELISA as described below. Cells were washed with PBS twice and were lysed in RIPA lysis buffer (Santa Cruz Biotechnology). Protein concentrations of the lysates were determined (Pierce BCA Protein Assay kit, Thermo Scientific) and the samples were diluted to 1 ug/ul concentration in coating buffer (0.1 M Sodium bicarbonate, 0.02% Sodium Azide pH-9.6). 5 μg of the protein sample was added to each well in a final volume of 100 μl of the coating buffer. The plates were gently shaken for 10 min and were then securely sealed and left for 2 hrs at room temperature. The solution was discarded and the plates were washed with washing buffer (PBS-0.5% TWEEN® 20, which is polysorbate 20) for 5 min. Blocking buffer (200 ul) was added to each well and the plates were incubated for 2 hours at room temperature followed by washings with the Washing buffer twice (3 min each). Anti-tyrosinase antibody (50 μl, 5 μg/ml in the blocking buffer) was added to each well and the plated were sealed and kept at room temperature for 1-2 hrs followed by washings with the washing buffer (3×10 min). The plates were incubated with the secondary antibody (Alkaline phosphatase, AP-Goat anti Rabbit IgG) for 1 hr and were then washed with the washing buffer for 3-5 times. The 100 μl of the substrate for AP (Nitrophenyl Phosphate, Disodium Salt, PNPP) was added to each well. Plates were again sealed and left for 30 min followed by measuring the absorbance at 405 nm that represented the quantitative estimation of tyrosinase expression.

For assay [3], the system named is Hsp60. The experiment in a line: Hsp60 expression in G361 cells. Format: cell-based, human. The conditions noted are these: FIG. 13B, Hydrochloride Salt.
In assay [4] the test system is mortalin. The experiment in a line: Mortalin expression (immunoblotting) in G361 cells. Format: cell-based, human. Here is the method:
as §2, §1

Assay [5] relates to Hsp60. The experiment in a line: Immunostaining of Hsp60 upon OAG induction. Type of assay: cell-based, human. The conditions noted are these: induction of melanogenesis by OAG, FIG. 4. As to the method: (§3) Cells were cultured and treated on glass coverslips placed in 12-well culture dish. At the end of the treatment as described above, coverslips were washed with cold phosphate-buffered saline (PBS) and the cells were fixed with pre-chilled methanol:acetone (1:1 v/v) mixture for 5-10 min. Fixed cells were washed with PBS, permeabilized with 0.2% TRITON™ X-100 (4-(1,1,3,3-Tetramethylbutyl)phenyl-polyethylene glycol) in PBS for 10 min, and blocked with 2% bovine serum albumin (BSA) in PBS for 20 min. Cells were stained with anti-mortalin, anti-HSP60, anti-tyrosinase and anti-melanosome antibodies. Immunostaining was visualized by secondary staining with Alexa-488 or Alexa-594 conjugated antibodies (Molecular probes). After three to four washings with 0.2% TRITON™ X-100 in PBS (PBST), cells were overlaid with Fluoromount (Difco). The cells were examined with Carl Zeiss microscope with epifluorescence optics.

The subject of assay [6] is primary melanocytes from a skin donor. The experiment in a line: Melanosome immunostaining in primary melanocytes from donor. The following applies: OAG-treated vs control primary melanocytes, FIG. 1A. Type of assay: cell-based, human. Here is the method: (§4) The human melanoma G361 were bought from Cell Resource Center for Biomedical Research, Tohoku University, Japan and were cultured in DMEM (Dulbecco's Modified Eagle's Medium, Invitrogen) supplemented with 10% fetal bovine serum in a humidified incubator (37° C. and 5% CO2). Human primary melanocytes from the light and dark skin donors were bought from ScienCell Research Laboratories and were cultured in the recommended melanocyte growth medium. Cells were transfected with the expression plasmids coding for either mortalin or HSP60 protein using Fugene (Roche) as per recommended protocol. Typically 3-5 μg of plasmid DNA was used for 6 cms culture dish at 70-80% confluency. Cells were incubated with the plasmids for 48 hrs after which cells were harvested and examined for the expression indicated genes by protocols as described below. For shRNA transfections, Oligofectamine™ Transfection Reagent (Life Technologies™) was used as per manufacturer's instructions. Transfected cells were incubated with medium supplemented with puromycin (1 ug/ml) for 24-48 hrs and were then processed for assays as described below.
(§5) Cells were cultured and treated on glass coverslips placed in 12-well culture dish. […]

Assay [7] relates to mortalin. The experiment in a line: Immunostaining of mortalin upon OAG induction. Type of assay: cell-based, human. The following applies: induction of melanogenesis by OAG, FIG. 5. Here is the method: as §3
For assay [8], the system named is human melanoma cells G361. The experiment in a line: Melanosome immunostaining in G361 cells. Type of assay: cell-based. The following applies: OAG-treated vs control G361 cells, FIG. 1B. As to the method: as §4, §5

“Also recorded” adds a separate entry of the source.

In the case of `CCCCCCCCCCCCCCCCOC(=O)C1CCC(CN)CC1.Cl` (centres unmarked) [TXC, Cetyl Tranexamate Hydrochloride Salt], the “endogenous expression of tyrosinase” value in the assay with tyrosinase [1] (G361 cells, FIG. 13A, Hydrochloride Salt) was “Reduction; also recorded: decreases”. Moreover, the OAG-induced melanin content entry in the assay on G361 cells is “reduction”. Moreover, in the assay on G361 cells (OAG-untreated G361 cells), the endogenous melanin result is reported as “reduction”. Also, the OAG-induced tyrosinase activity result with tyrosinase [2] (OAG-treated G361 cells, TXC at various concentrations, FIG. 12) was “reduction”. In addition, the “endogenous expression of Hsp60” value in the assay with Hsp60 [3] was “Reduction; also recorded: decreases”. Besides, in the assay on mortalin [4] (G361 cells treated with OAG, then recovery in presence of test substance, Hydrochloride Salt), the “OAG-induced expression of Mortalin” value is “reduction; also recorded: decrease”. The “endogenous expression of Mortalin” value in the assay with mortalin [4] (G361 cells, FIG. 13, Hydrochloride Salt) is given as “reduction; also recorded: decreases”.
With `O=C1O[C@H]([C@@H](O)CO)C(O)=C1O` [Vitamin C], the OAG-induced melanin content result in the assay on G361 cells is listed as “reduction”. Further, the OAG-induced tyrosinase result with tyrosinase [2] (OAG-treated G361 cells then Vitamin C, FIG. 3) is “decrease”.
Regarding `CCCCCCCC/C=C\CCCCCCCC(=O)OC[C@H](CO)OC(C)=O` [OAG, 1-oleoyl-2-acetyl-sn-glycero], the “Hsp60 level (immunostaining)” value with Hsp60 [5] is listed as “upregulation”. Further, the melanosome production result in [6] and in [8] was “induced” throughout. Besides, the “mortalin level (immunostaining)” value in the assay with mortalin [7] is recorded as “upregulation”. In addition, in the assay on tyrosinase [1] (OAG-treated G361 cells, FIG. 3A), the tyrosinase expression entry is “increase”. The melanin content entry in the assay with G361 cells (G361 cells treated with OAG, FIG. 2) is on record as “Increase”. In addition, in the assay on tyrosinase [2] (OAG-treated G361 cells, FIG. 3B), the tyrosinase activity entry is recorded as “increase”. For the same compound, the mortalin expression entry in the assay with mortalin [4] (G361 cells treated with OAG, FIG. 13C) is “Increase”.

The values are drawn from patent US10520492B2, “Method of screening for candidate compounds for regulating melanogenesis or pigmentation” (CHANEL PARFUMS BEAUTE, priority 2013, dated 2019).
